Consider one compound from patent publication US7378397B2 (The Provost, Fellows and Scholars of the College of the …, priority 2000, dated 2008).

Where a SMILES comes first, the peptide text is derived from it. [ ]: non-standard residue; d: D form. pGlu = O=C1CC[C@@H](C(=O)O)N1

The target of this test is T1, TRH-DE (Sus scrofa, UniProt A0A287AP33).
T1 construct: The inventor purified TRH-DE from porcine brain according to purification procedures previously published by Dr. K. Bauer; from tissue; host or cells: porcine brain (TRH-DE); bovine kidney (DPP-IV, gift from Dr. C. H. Williams)
The test can be described thus: HPLC assay of peptide hydrolysis by TRH-DE (Glp production). Format: biochemical, porcine. Particulars: 1 mM peptide incubated with TRH-DE 18 h at 37° C., HPLC. Summed up: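 Porcine brain TRH-DE incubated with 1 mM peptide in 20 mM potassium phosphate, pH 7.5, 37 °C: screen with 0.8 μg enzyme for 18 h; rate microassays with 0.8-3.2 μg enzyme for 5 min to 18 h, in triplicate. Reactions stopped with TFA; Glp quantified by C-18 reverse-phase HPLC, UV 206 nm.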

T1 sequence (A0A287AP33 1-1066): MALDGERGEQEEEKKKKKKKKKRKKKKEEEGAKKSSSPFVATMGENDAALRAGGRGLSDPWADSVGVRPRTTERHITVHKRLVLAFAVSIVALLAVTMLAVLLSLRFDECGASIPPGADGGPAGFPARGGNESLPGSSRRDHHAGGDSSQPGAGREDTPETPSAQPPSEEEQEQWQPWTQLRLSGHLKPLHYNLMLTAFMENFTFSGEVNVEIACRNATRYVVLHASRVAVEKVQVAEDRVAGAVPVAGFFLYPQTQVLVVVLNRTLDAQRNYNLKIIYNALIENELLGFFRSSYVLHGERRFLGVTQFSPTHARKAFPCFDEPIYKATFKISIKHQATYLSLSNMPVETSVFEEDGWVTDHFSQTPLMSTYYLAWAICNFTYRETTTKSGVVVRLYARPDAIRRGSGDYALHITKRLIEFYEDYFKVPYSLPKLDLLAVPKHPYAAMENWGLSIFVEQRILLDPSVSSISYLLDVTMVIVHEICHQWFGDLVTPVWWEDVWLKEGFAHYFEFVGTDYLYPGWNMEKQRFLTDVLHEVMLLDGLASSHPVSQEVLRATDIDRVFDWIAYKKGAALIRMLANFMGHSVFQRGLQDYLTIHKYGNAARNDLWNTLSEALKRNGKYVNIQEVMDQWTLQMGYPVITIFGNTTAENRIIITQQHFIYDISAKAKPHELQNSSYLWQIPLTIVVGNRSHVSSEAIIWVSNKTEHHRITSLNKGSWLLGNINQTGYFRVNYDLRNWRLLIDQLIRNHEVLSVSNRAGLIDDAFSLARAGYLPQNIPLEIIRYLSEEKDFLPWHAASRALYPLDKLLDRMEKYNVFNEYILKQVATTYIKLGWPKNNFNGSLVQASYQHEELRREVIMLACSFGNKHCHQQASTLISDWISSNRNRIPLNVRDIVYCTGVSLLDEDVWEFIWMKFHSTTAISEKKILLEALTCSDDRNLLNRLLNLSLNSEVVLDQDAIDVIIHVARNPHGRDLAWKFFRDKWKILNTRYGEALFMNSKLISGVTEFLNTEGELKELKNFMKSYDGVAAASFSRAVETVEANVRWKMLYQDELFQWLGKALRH

As for `NC(=O)C[C@H](NC(=O)[C@@H]1CCC(=O)N1)C(=O)N1CCC[C@H]1C(N)=O` [Glp-Asn-ProNH2, pyroglutamyl-asparaginyl-prolineamide] ([pGlu]-Asn-Pro-NH2), the “hydrolysis by TRH-DE (release of Glp)” value was “No detectable Glp”.
